Reference: patent publication US20050124683A1, “HIV protease inhibitors, compositions containing the same, their pharmaceutical uses and materials for their synthesis” (priority 2003, published 2005)
Where two headings read alike, the source gives them in different places.

Legend:
[1] = system: HIV-1; assay: Antiviral EC50 in HIV-infected T-cell lines (CPE inhibition / susceptibility assays); type: cell-based
Protocol: T-cell lines, CEM-SS, and MT-2, and viruses HIV-1 RF and HIV-1 NL4-3 (pNL4-3) were obtained from the National Institutes of Health (AIDS Research and Reference Reagent Program, Bethesda, MD).
The ability of compounds to protect cells against HIV infection was measured by the […] dye reduction method, essentially as described (See Pauwels, R. Balzarini, J. Baba, M. Snoeck, R. Schols, D. Herdewijn, P. Desmyter, J. and De Clercq, E. 1988, “Rapid and automated tetrazolium-based colorimetric assay for the detection of anti-HIV compounds,”. J Virol. Methods., 20: 309-321 and Weislow, O. S. Kiser, R. Fine, D. L. Bader, J. Shoemaker, R. H. and Boyd, M. R. 1989. “New soluble-formazan assay for HIV-1 cytopathic effects: application to high-flux screening of synthetic and natural products for AIDS-antiviral activity”. J. Natl. Cancer Inst. 81:577-586). Subject cells were infected with test virus at an moi of 0.025 to 0.819 or mock infected with medium only and added at 2×10^4 cells per well into 96 well plates containing half-log dilutions of test compounds. Six days later, 50 μl of XTT (1 mg/ml XTT tetrazolium, […] phenazine methosulfate) was added to the wells and the plate was reincubated for four hours. Viability, as determined by the amount of XTT formazan produced, was quantified spectrophotometrically by absorbance at 450 nm. Data from CPE assays were expressed as the percent of formazan produced in compound-treated cells compared to formazan produced in wells of uninfected, compound-free cells. The fifty percent effective concentration (EC50) was calculated as the concentration of compound that effected an increase in the percentage of formazan production in infected, compound-treated cells to 50% of that produced by uninfected, compound-free cells. The 50% cytotoxicity concentration (CC50) was calculated as the concentration of compound that decreased the percentage of formazan produced in uninfected, compound-treated cells to 50% of that produced in uninfected, compound-free cells. The therapeutic index was calculated by dividing the cytotoxicity (CC50) by the antiviral activity (EC50).
Compounds were tested in phenotypic susceptibility assays at Virologic, Inc., (See Petropoulos C. J., Parkin N. T., Limoli K. L., Lie Y. S., Wrin T., Huang W., Tian H., Smith D., Winslow G. A., Capon D J, Whitcomb J M. 2000, “A novel phenotypic drug susceptibility assay for human immunodeficiency virus type 1,” Antimicrob Agents Chemother 44(4):920-928) or using the assay described here. MT-2 cells were infected with either HIV-1 NL4-3 or HIV-1 NL4-3(I84V/L90M) and incubated in the presence of serial 0.5 log dilutions of test compounds. Three days later, culture supernatants were collected and virus production, as determined by p24 ELISA, was assayed. Percent inhibition was calculated as p24 concentration in compound-treated samples as compared to infected, compound-free controls. Inhibition of viral replication is determined by measuring reduction in HIV p24 present in the culture supernatant, using a Beckman-Coulter p24 HIV-1 Ag EIA kit and following the supplied protocol. Absorbance is read on a MRX microplate reader (Dynex Technologies). The EC50 was calculated as the concentration of compound that effected a decrease in the p24 production by infected, compound-treated cells to 50% of that produced by infected, compound-free cells.

[2] = target: T1, HIV-1 protease (Human immunodeficiency virus type 1 group M subtype B, UniProt P04585, Q495S); assay: HIV-1 Protease RET assay (Ki, resonance energy transfer); type: biochemical; conditions: Q7S mutant HIV-1 protease
T1 construct: made in house
Protocol: Ki's for the inhibitors of HIV-1 protease were determined using a resonance energy transfer (RET) assay. […] This enzyme is first partially purified as inclusion bodies from cell lysate. It is then solublized in 8M urea and passed through a Q-Sepharose column (Pharmacia) for further purification. To refold this protein, samples containing Q7S is dialyzed into 50 mM sodium phosphate pH 7.0, 50 mM NaCl, 10 mM DTT, and 10% glycerol.
The commercially available peptide substrate (Molecular Probes Cat. # H-2930) RE(EDANS)SQNYPIVQK(DABCYL)R is used to assess activity and Ki's. This peptide is cleaved quantitatively by HIV-1 Pr at the Tyr-Pro bond. The EDANS fluorophore absorbs at 340 nm and emits at 490 nm. The reaction is carried out in a 96 well plate in a total volume of 100 µL and is run for 12 minutes at 37C under steady-state conditions with 5 µM substrate and 2 nM active dimer enzyme concentration. The literature value Km for this substrate and enzyme is 103+/−8 μM (See Matayoshi, et al., “Novel Fluorogenic Substrates for Assaying Retroviral Proteases by Resonance Energy Transfer,” Science 247, 954 (1990)). The buffer for this reaction is 0.1M sodium acetate pH 4.8, 1M NaCl, 1 mM EDTA, 5 mM dithiothreitol, 10% dimethyl sulfoxide and 1 mg/ml bovine serum albumin. Inhibition curves are fit using the Morrison tight binding equation.

[3] = Human immunodeficiency virus 1, T-cell, read-out: EC50 (wt) (nm), wt virus
[4] = Human immunodeficiency virus 1, T-cell, read-out: Ave. EC50, average, unit inferred

| SMILES | EC50 [1, 3] [nM] | Ki ([2]; read-out: Ki (nm)) [nM] | EC50 [1, 4] [nM] | Ki ([2]; average, read-out: Ave. Ki) [nM] | EC50 ([1]; read-out: EC50 (wt) (nm), wt virus) [nM] |
| --- | --- | --- | --- | --- | --- |
| CCC(C)NC(=O)C1N(C(=O)C(O)C(Cc2ccccc2)NC(=O)c2cc(C)cc(O)c2C)CC(F)(F)C1(C)C (stereo not shown) | 16 | < 0.1 |  |  |  |
| CCCNC(=O)[C@H]1N(C(=O)[C@@H](O)[C@H](Cc2ccccc2)NC(=O)c2cc(C)cc(O)c2C)CC(F)(F)C1(C)C [Example D14, (S)-4,4-Difluoro-1-1-[(2S,3S)-2-hydroxy-3-(3-hydroxy-2,5-dimethyl-benzoylamino)-4-phenyl-butyryl]-3,3-dimethyl-pyrrolidine-2-carboxylic acid propylamide] |  |  | 9 |  |  |
| CCCCNC(=O)[C@H]1N(C(=O)[C@@H](O)[C@H](Cc2ccccc2)NC(=O)c2cc(C)cc(O)c2C)CC(F)(F)C1(C)C | 23 | < 0.1 |  |  |  |
| Cc1cnccc1CNC(=O)C1N(C(=O)[C@@H](O)[C@H](Cc2ccccc2)NC(=O)c2cccc(O)c2C)CC(F)(F)C1(C)C (stereo partly shown) | 8 | < 0.1 |  |  |  |
| CCNC(=O)[C@H]1N(C(=O)[C@@H](O)[C@H](Cc2ccccc2)NC(=O)c2cc(C)cc(O)c2C)CC(F)(F)C1(C)C [Example D17, (S)-4,4-Difluoro-1-[(2S,3S)-2-hydroxy-3-(3-hydroxy-2,5-dimethyl-benzoylamino)-4-phenyl-butyryl]-3,3-dimethyl-pyrrolidine-2-carboxylic acid ethylamide] |  |  | 66 | < 0.1 |  |
| CCC(C)NC(=O)[C@H]1N(C(=O)[C@@H](O)[C@H](Cc2ccccc2)NC(=O)c2cccc(O)c2C)CC(F)(F)C1(C)C (stereo partly shown) | 31 | < 0.1 |  |  |  |
| Cc1c(O)cccc1C(=O)N[C@@H](Cc1cccc(F)c1)[C@H](O)C(=O)N1CC(F)(F)C(C)(C)[C@H]1C(=O)NCC(C)(C)C [drawing 136] | 13 | < 0.1 |  |  |  |
| CC(C)CNC(=O)[C@H]1N(C(=O)[C@@H](O)[C@H](Cc2cccc(F)c2)NC(=O)c2cccc3c2CCN3)CC(F)(F)C1(C)C | 42 | < 0.1 |  |  |  |
| Cc1cc(O)c(C)c(C(=O)N[C@@H](Cc2cccc(F)c2)[C@H](O)C(=O)N2CC(F)(F)C(C)(C)[C@H]2C(=O)NCc2ccccc2F)c1 | 6.7 | < 0.1 |  |  |  |
| C=CCNC(=O)C1N(C(=O)[C@@H](O)[C@H](Cc2cccc(F)c2)NC(=O)c2cccc(O)c2C)CC(F)(F)C1(C)C (stereo partly drawn) [Example D10, (R)-3-((2S,3R)-4,4-Difluoro-1-[4-(3-fluoro-phenyl)-2-hydroxy-3-(3-hydroxy-2-methyl-benzoylamino)-butyryl])-3,3-dimethyl-pyrrolidine-2-carboxylic acid allylamide] |  |  | 16 | < 0.1 |  |
| Cc1c(O)cccc1C(=O)N[C@@H](Cc1ccccc1)[C@H](O)C(=O)N1COC(C)(C)[C@H]1C(=O)NC1CCc2ccccc21 (stereo partly shown) | 33 | < 0.1 |  |  |  |
| Cc1c(O)cccc1C(=O)N[C@@H](Cc1cccc(F)c1)[C@H](O)C(=O)N1CC(F)(F)C(C)(C)[C@H]1C(=O)NCC(C)(C)C [drawing 137] |  | < 0.1 |  |  | 8.8 |
| Cc1cc(O)c(C)c(C(=O)N[C@@H](Cc2ccccc2)[C@H](O)C(=O)N2CC(C)(O)C(C)(C)[C@H]2C(=O)NCc2ccccc2C)c1 (stereo partly shown) | 12 | < 0.1 |  |  |  |
| Cc1cc(O)c(C)c(C(=O)N[C@@H](Cc2ccccc2)[C@H](O)C(=O)N2CC(F)(F)C(C)(C)C2C(=O)NCC(C)C)c1 (stereo partly shown) | 31 | < 0.1 |  |  |  |
| Cc1ccccc1CNC(=O)[C@H]1N(C(=O)[C@@H](O)[C@H](Cc2ccccc2)NC(=O)c2cccc(O)c2C)CC(O)C1(C)C (stereo partly shown) | 140 | < 0.1 |  |  |  |
| C=CCNC(=O)[C@H]1N(C(=O)[C@@H](O)[C@H](Cc2ccccc2)NC(=O)c2cc(C)cc(O)c2C)CSC1(C)C [Example D12, (R)-3-[(2S,3S)-2-Hydroxy-3-(3-hydroxy-2,5-dimethyl-benzoylamino)-4-phenyl-butyryl]-5,5-dimethyl-thiazolidine-4-carboxylic acid allylamide] |  |  | 16 | 0.7 |  |
| Cc1c(O)cccc1C(=O)N[C@@H](Cc1ccccc1)[C@H](O)C(=O)N1CC(O)C(C)(C)[C@H]1C(=O)NCC(C)C (stereo partly shown) | 450 | 0.7 |  |  |  |
| Cc1cc(O)c(C)c(C(=O)N[C@@H](Cc2ccccc2)[C@H](O)C(=O)N2CC(F)(F)C(C)(C)[C@H]2C(=O)NCc2ccncc2C)c1 | 34 | < 0.1 |  |  |  |
| C=CCNC(=O)[C@H]1N(C(=O)[C@@H](O)[C@H](Cc2ccccc2)NC(=O)c2cccc(O)c2C)CC(O)C1(C)C (stereo partly shown) | 470 | 3.6 |  |  |  |
| CC[C@H](C)CNC(=O)[C@H]1N(C(=O)[C@@H](O)[C@H](Cc2ccccc2)NC(=O)c2cccc(O)c2C)CC(F)(F)C1(C)C [drawing 143] | 11 | < 0.1 |  |  |  |
| CCCCNC(=O)[C@H]1N(C(=O)[C@@H](O)[C@H](Cc2cccc(F)c2)NC(=O)c2cccc(O)c2C)CC(F)(F)C1(C)C | 32 | < 0.1 |  |  |  |
| CCNC(=O)[C@H]1N(C(=O)[C@@H](O)[C@H](Cc2ccccc2)NC(=O)c2cc(C)cc(O)c2C)CC(F)(F)C1(C)C [drawing 141] | 37 | < 0.1 |  |  |  |
| CCNC(=O)[C@H]1N(C(=O)[C@@H](O)[C@H](Cc2ccccc2)NC(=O)c2c(C)ccc(O)c2C)CC(F)(F)C1(C)C | 35 | < 0.1 |  |  |  |
| Cc1cc(O)c(C)c(C(=O)N[C@@H](Cc2ccccc2)[C@H](O)C(=O)N2CC(F)(F)C(C)(C)[C@H]2C(=O)NCc2ccncc2)c1 | 110 | 0.26 |  |  |  |
| Cc1c(O)cccc1C(=O)N[C@@H](Cc1cccc(F)c1)[C@H](O)C(=O)N1CC(F)(F)C(C)(C)C1C(=O)NCC(C)C (stereo partly shown) | 13 | < 0.1 |  |  |  |
| Cc1cc(O)c(C)c(C(=O)N[C@@H](Cc2ccccc2)[C@H](O)C(=O)N2COC(C)(C)[C@H]2C(=O)NC2CCc3ccccc32)c1 (stereo partly shown) | 61 | < 0.1 |  |  |  |
| CC[C@H](C)CNC(=O)[C@H]1N(C(=O)[C@@H](O)[C@H](Cc2ccccc2)NC(=O)c2cc(C)cc(O)c2C)CC(F)(F)C1(C)C | 7.5 | < 0.1 |  |  |  |
| Cc1cc(O)c(C)c(C(=O)N[C@@H](Cc2ccccc2)[C@H](O)C(=O)N2CC(F)(F)C(C)(C)[C@H]2C(=O)NCc2ccccn2)c1 | 61 | < 0.1 |  |  |  |
| C=CCNC(=O)C1N(C(=O)[C@@H](O)[C@H](Cc2cccc(F)c2)NC(=O)c2cccc(O)c2C)CC(F)(F)C1(C)C (stereo partly shown) [drawing 101] | 16 | < 0.1 |  |  |  |
| Cc1cc(O)c(C)c(C(=O)N[C@@H](Cc2ccccc2)[C@H](O)C(=O)N2CC(F)(F)C(C)(C)[C@H]2C(=O)NCC(C)C)c1 [Example D15, (S)-4,4-Difluoro-1-1-[(2S,3S)-2-hydroxy-3-(3-hydroxy-2,5-dimethyl-benzoylamino)-4-phenyl-butyryl]-3,3-dimethyl-pyrrolidine-2-carboxylic acid isobutyl-amide] |  |  | 11 |  |  |
